Drawing on patent US20020165221A1, “Mediators of hedgehog signaling pathways, compositions and uses related thereto” (priority 2000, published 2002), this text covers IC50 for 60 molecules.

This assay has as its system Hedgehog pathway. Put plainly: Gli-Luc assay (Hedgehog-responsive Luciferase reporter), 10T1/2(s12) cells with OCT-SHH. The format is cell-based. The conditions noted are these: OCT-SHH 0.3 μg/ml. The protocol:
Compounds to be tested are dissolved in DMSO to a concentration of 10 MM, and stored at −20° C. To activate the Hedgehog pathway in the assay cells, an octylated (lipid-modified) form of the N-terminal fragment of the Sonic Hedgehog protein (OCT-SHH) is used. This N-terminal SHH fragment is produced bacterially.
Compounds may be tested in the “Gli-Luc” assay below, using the cell line 10T(s12), wherein the cells contain a Hedgehog-responsive reporter construct utilizing Luciferase as the reporter gene. In this way, Hedgehog pathway signaling activity can be measured via the Gli-Luc response.
10t1/2(s12) cells are plated in a 96-well micro-titer plate (MTP) at 20,000 cells/well in full medium [DMEM with 10% FBS]. Then plates are placed in the incubator for incubation overnight (O/N), at 37° C. and 5% CO2. After 24 h, the medium is replaced with Luciferase-assay medium (DMEM with 0.5% FBS). Compounds are thawed and diluted in assay medium at 3:1000 (about 300-fold) resulting in a starting concentration of about 30 μM.
Subsequently, 150 μl of each 30 μM sample is added to the first wells (in triplicate). The MTP samples are then diluted at 3-fold dilutions to a total of seven wells, ultimately resulting in a regiment of seven dilutions in triplicate, for each compound. Next, the protein ligand OCT-SHH is diluted in Luciferase-assay medium and added to each well at a final concentration of 0.3 μg/ml. Plates are then returned to the incubator for further incubation O/N, at 37° C. and 5% CO2. After about 24 h, plates are removed from the incubator and the medium is aspirated/discarded. Wells are washed once with assay buffer [PBS +1 mM Mg^2+and 1 mM Ca^2+]. Then 50 μl of assay buffer is added to each well. The Luciferase assay reagent is prepared as described by the vendor (LucLite kit from Packard), and 50 μl is added to each well. Plates are incubated at room temperature (RT) for about 30 minutes after which the signals are read, again at RT, on a Topcount (Packard).
For orientation: IC50 means the concentration that gives 50% inhibition. High values mean lower potency, low ones higher potency. Consider `COc1cccc(CN(C(=O)NC(C)C)[C@H]2C[C@@H](C(=O)N3CCNCC3)N(Cc3ccc4c(c3)OCO4)C2)c1` [O″], for which the IC50 was below 1 µM.

`COc1cccc(CN2CC(N(Cc3cccc(OC)c3)C(=O)c3cccs3)CC2C(=O)N2CCNCC2)c1` (stereo not drawn) [Q] showed an IC50 below 1 µM. The figure for `COc1cccc(CN(C(=O)C(C)C)C2CC(C(=O)N3CCNCC3)N(Cc3ccc(C)s3)C2)c1` (stereo not drawn) [O] is below 0.1 µM; for `COc1cccc(CN(C(=O)CC(C)(C)C)[C@H]2C[C@@H](C(=O)N3CCNCC3)N(Cc3ccc(C=O)s3)C2)c1` [H″] it is below 10 µM; for `COc1cccc(CN(C(=O)C2CCCC2)C2CC(C(=O)N3CCNCC3)N(Cc3ccc4c(c3)OCCO4)C2)c1` (stereo not drawn) [W′] it is below 1 µM. In the case of `CC(C)(C)CC(=O)N(Cc1ccccc1)C1CC(C(=O)NCCN)N(CC2CCCCC2)C1` (stereo not drawn) [Y], the IC50 was below 10 µM. Next, `COc1cccc(CN(C(=O)C2CC2)C2CC(C(=O)N3CCNCC3)N(CC3CCCCC3)C2)c1` (stereo not drawn) [S]: below 1 µM. The molecule `CC(C)CC(=O)N(Cc1ccccc1OC(F)F)C1CC(C(=O)N2CCNCC2)N(Cc2ccc3c(c2)OCO3)C1` (stereo not drawn) [W″] yielded an IC50 below 10 µM.

The molecule `COc1cccc(CN(C(=O)CC(C)(C)C)C2CC(C(=O)N3CCNCC3)N(Cc3cc4ccccc4n3C)C2)c1` (stereo not drawn) [F″] yielded an IC50 below 10 µM. Next, `COc1cccc(CN(C(=O)C2CC2)C2CC(C(=O)N3CCNCC3)N(Cc3ccc(OC)c(OC)c3OC)C2)c1` (stereo not drawn) [N′]: below 1 µM; `CCNCCCN(CC)C(=O)[C@@H]1C[C@H](N(Cc2cccc(OC)c2)C(=O)CC(C)(C)C)CN1Cc1ccc2c(c1)OCO2` [F′″]: below 1 µM; `COc1cccc(CN(C(=O)CC2CC2)[C@H]2C[C@@H](C(=O)N3CCNCC3)N(Cc3ccc4c(c3)OCO4)C2)c1` [J″]: below 0.1 µM. Next, `COc1cccc(CN(C(=O)CC(C)(C)C)C2CC(C(=O)N3CCNCC3)N(CC3CCCCC3)C2)c1` (stereo not drawn) [T]: below 1 µM; `CC(C)CC(=O)N(Cc1cccc(SC(F)(F)F)c1)C1CC(C(=O)N2CCNCC2)N(Cc2ccc3c(c2)OCO3)C1` (stereo not drawn) [X″]: below 10 µM. Next, `COc1cccc(CN(C(=O)CC(C)(C)C)C2CC(C(=O)N3CCNCC3)N(Cc3ccc4c(c3)OCO4)C2)c1` (stereo not drawn) [O′]: below 0.1 µM. `COc1cccc(CN(C(=O)CC(C)(C)C)C2CC(C(=O)N3CCNCC3)N(Cc3ccc(C)s3)C2)c1` (stereo not drawn) [M′] gave an IC50 below 0.1 µM. `COc1cccc(CN(C(=O)CC(C)(C)C)C2CC(C(=O)N3CCNCC3)N(Cc3ccc(SC)s3)C2)c1` (stereo not drawn) [Z′] yielded an IC50 below 1 µM. `COc1cccc(CN(C(=O)CC(C)C)C2CC(C(=O)N3CCNCC3)N(Cc3ccc4c(c3)OCCO4)C2)c1` (stereo not drawn) [H] came in with an IC50 below 0.1 µM. `COc1cccc(CN(C(=O)C2CCCC2)C2CC(C(=O)N3CCNCC3)N(Cc3ccc(OC)c(OC)c3OC)C2)c1` (stereo not drawn) [V′]: the IC50 is below 1 µM. In turn, `COc1cccc(CN(C(=O)CC(C)(C)C)C2CC(C(=O)N3CCNCC3)N(Cc3cc(Br)cs3)C2)c1` (stereo not drawn) [L] returned an IC50 below 10 µM. The figure for `Cc1ccc(CN2CC(N(Cc3cccs3)C(=O)c3cccs3)CC2C(=O)N2CCNCC2)s1` (stereo not drawn) [D′] is below 10 µM; for `COc1cccc(CN2CC(N(Cc3cccc(OC)c3)C(=O)C3CC3)CC2C(=O)N2CCNCC2)c1` (stereo not drawn) [C] it is below 1 µM.

Regarding `CCN1CCC(N(CC)C(=O)[C@@H]2C[C@H](N(Cc3cccc(OC)c3)C(=O)CC(C)(C)C)CN2Cc2ccc3c(c2)OCO3)C1` (stereo partly drawn) [E′″], the IC50 was below 10 µM. With `COc1cccc(CN(C(=O)CC(C)(C)C)[C@H]2C[C@@H](C(=O)N3CCNCC3)N(Cc3ccc(Br)s3)C2)c1` [C″], the IC50 was below 1 µM. In turn, `COc1cccc(CN(C(=O)CC(C)(C)C)[C@H]2C[C@@H](C(=O)N3CCNCC3)N(Cc3cc(C)c(C)o3)C2)c1` [G″] returned an IC50 below 1 µM. On to `COc1cccc(CN(C(=O)CC(C)(C)C)C2CC(C(=O)N3CCNCC3)N(Cc3ccc(-c4cc(C(F)(F)F)n(C)n4)s3)C2)c1` (stereo not drawn) [E″], for which the IC50 is below 10 µM. Consider `COc1cccc(CN(C(=O)c2ccco2)C2CC(C(=O)N3CCNCC3)N(Cc3ccc4c(c3)OCCO4)C2)c1` (stereo not drawn) [Q′], for which the IC50 was below 10 µM. `COc1cccc(CN(C(=O)CC(C)(C)C)C2CC(C(=O)N3CCCNCC3)N(Cc3ccc4c(c3)OCO4)C2)c1` (stereo not drawn) [Z] displayed an IC50 below 1 µM.

For the molecule `COc1cccc(CN(C(=O)C2CCC2)C2CC(C(=O)N3CCNCC3)N(Cc3ccc(OC)c(OC)c3OC)C2)c1` (stereo not drawn) [T′], the IC50 is below 1 µM. As to `COc1cccc(CN(C(=O)CC(C)C(F)(F)F)C2CC(C(=O)N3CCNCC3)N(Cc3ccc4c(c3)OCO4)C2)c1` (stereo not drawn) [L″], the IC50 was below 1 µM.

Regarding `O=C(C1CC(N(CC2CCCCC2)CC2CC2)CN1Cc1ccc(F)cc1)N1CCCNCC1` (stereo not drawn) [C′], the IC50 was below 10 µM.

In the case of `COc1cccc(CN(C(=O)CC(C)C)C2CC(C(=O)N3CCNCC3)N(Cc3ccc(C)s3)C2)c1` (stereo not drawn) [X′], the IC50 was below 0.1 µM. In turn, `COc1cccc(CN(C(=O)CC(C)(C)C)[C@H]2C[C@@H](C(=O)N3CCN[C@@H](C)C3)N(Cc3ccc4c(c3)OCO4)C2)c1` [Z″] returned an IC50 below 1 µM. The molecule `Cc1cccc(CN(C(=O)CC(C)C)[C@H]2C[C@@H](C(=O)N3CCNCC3)N(Cc3ccc4c(c3)OCO4)C2)c1` [R″] registered an IC50 below 1 µM. `COc1cccc(CN(C(=O)c2cccs2)C2CC(C(=O)N3CCNCC3)N(Cc3ccc(C)s3)C2)c1` (stereo not drawn) [A] registered an IC50 below 1 µM. With `COc1cccc(CN(C(=O)C(C)C)C2CC(C(=O)N3CCNCC3)N(Cc3ccc4c(c3)OCO4)C2)c1` (stereo not drawn) [P], the IC50 is below 0.1 µM. For the molecule `COc1cccc(CN(C(=O)CC(C)(C)C)[C@H]2C[C@@H](C(=O)N(C)C3CCNC3)N(Cc3ccc4c(c3)OCO4)C2)c1` (stereo partly drawn) [D′″], the IC50 was below 10 µM.

`COc1cccc(CN(C(=O)C(C)C)C2CC(C(=O)N3CCNCC3)N(Cc3ccc(OC)c(OC)c3OC)C2)c1` (stereo not drawn) [P′] came in with an IC50 below 10 µM.

With `Cc1ccccc1CN(CCc1ccccc1)C1CC(C(=O)NCC2CCC(CN)CC2)N(Cc2ccc3c(c2)OCO3)C1` (stereo not drawn) [I′], the IC50 is below 10 µM.

On to `COc1cccc(CN2CC(N(Cc3cccc(OC)c3)C(=O)CC(C)(C)C)CC2C(=O)N2CCNCC2)c1` (stereo not drawn) [F], for which the IC50 was below 1 µM. `CC(C)CC(=O)N(Cc1cccc([N+](=O)[O-])c1)C1CC(C(=O)N2CCNCC2)N(Cc2ccc3c(c2)OCO3)C1` (stereo not drawn) [U″]: the IC50 is below 10 µM. Next, `COc1cccc(CN(C(=O)CC(C)(C)C)C2CC(C(=O)N3CCNCC3)N(Cc3ccc4c(c3)OCO4)C2)c1` (stereo not drawn) [M]: below 1 µM; `COc1cccc(CN(C(=O)C2CC2)C2CC(C(=O)N3CCNCC3)N(Cc3ccc(C)s3)C2)c1` (stereo not drawn) [B]: below 1 µM.

Regarding `CC(C)CC(=O)N(Cc1cccc(C#N)c1)C1CC(C(=O)N2CCNCC2)N(Cc2ccc3c(c2)OCO3)C1` (stereo not drawn) [S″], the IC50 is below 1 µM. `CC(C)CC(=O)N(Cc1cccc(OCc2ccccc2)c1)C1CC(C(=O)N2CCNCC2)N(Cc2ccc3c(c2)OCO3)C1` (stereo not drawn) [Y″]: the IC50 is below 10 µM. The molecule `O=C(C1CC(N(Cc2cccs2)C(=O)C2CC2)CN1Cc1ccc2c(c1)OCO2)N1CCNCC1` (stereo not drawn) [V] yielded an IC50 below 1 µM. For `CCOc1cc(CN2CC(N(Cc3cccc(OC)c3)C(=O)CC(C)(C)C)CC2C(=O)N2CCNCC2)ccc1OC` (stereo not drawn) [K′], the IC50 is below 10 µM. Next, `COc1cccc(CN(C(=O)CC(C)(C)C)[C@H]2C[C@@H](C(=O)N3CCNCC3)N(Cc3ccc(-c4cccs4)s3)C2)c1` [D″]: below 10 µM; `COc1cccc(CN(C(=O)NC(C)(C)C)[C@H]2C[C@@H](C(=O)N3CCNCC3)N(Cc3ccc4c(c3)OCO4)C2)c1` [I″]: below 0.1 µM; `Cc1ccccc1CN(C(=O)CC(C)C)C1CC(C(=O)N2CCNCC2)N(Cc2ccc3c(c2)OCO3)C1` (stereo not drawn) [V″]: below 1 µM. `COc1cccc(CN(C(=O)CC(C)C)C2CC(C(=O)N3CCNCC3)N(Cc3ccc4c(c3)OCCO4)C2)c1` (stereo not drawn) [R′]: the IC50 was below 1 µM. Regarding `COC(=O)c1ccsc1CN1CC(N(Cc2cccc(OC)c2)C(=O)CC(C)(C)C)CC1C(=O)N1CCNCC1` (stereo not drawn) [B″], the IC50 was below 1 µM.

Consider `CCC(=O)N(Cc1cccc(OC)c1)C1CC(C(=O)N2CCNCC2)N(Cc2ccc(OC)c(OC)c2OC)C1` (stereo not drawn) [S′], for which the IC50 is below 10 µM. `COc1cccc(CN(C(=O)C2CC2)C2CC(C(=O)N3CCNCC3)N(Cc3ccc(F)cc3)C2)c1` (stereo not drawn) [W] returned an IC50 below 1 µM. In turn, `O=C(C1CC(N(CC2CCCCC2)CC2CCCO2)CN1Cc1ccc(F)cc1)N1CCNCC1` (stereo not drawn) [E′] came in with a half-inhibitory concentration (IC50) below 10 µM. `NCCNC(=O)C1CC(N(CCc2ccccc2)C(=O)C2CCCCC2)CN1CC1CCCCC1` (stereo not drawn) [B′] registered an IC50 below 10 µM. Molecule `COc1cccc(CN(C(=O)CC(C)(C)C)C2CC(C(=O)N3CCNCC3)N(Cc3ccc(OC)c(OC)c3OC)C2)c1` (stereo not drawn) [K] had an IC50 below 0.1 µM. `COc1cccc(CN(C(=O)CC(C)(C)C)C2CC(C(=O)N3CCNCC3)N(Cc3cc4ccsc4s3)C2)c1` (stereo not drawn) [Y′]: the IC50 is below 1 µM.

`COc1cccc(CN(C(=O)CC(C)CCC=C(C)C)C2CC(C(=O)N3CCNCC3)N(Cc3ccc4c(c3)OCO4)C2)c1` (stereo not drawn) [Q″] had a half-maximal inhibitory concentration (IC50) below 10 µM.

For the molecule `COc1cccc(CN(C(=O)CC(C)C)C2CC(C(=O)N3CCNCC3)N(Cc3ccsc3)C2)c1` (stereo not drawn) [G], the IC50 is below 1 µM.
